Molecular target: T1, human ACC2 (Homo sapiens, UniProt O00763)
T1 construct: made in house; host or cells: insect cells (baculoviral expression system)
Assay: ACC2 assay, spectrophotometric 384 well assay (NADH-linked, coupled lactate dehydrogenase/pyruvate kinase)
Format: biochemical
Conditions: ACC2 assay, hACC2 construct lacking 128 N-terminal amino acids, 25° C., 340 nm; read-out: IC50
Procedure, shortened: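 Human ACC2 lacking N-terminal 128 aa, baculovirus/insect-cell expressed, anion-exchange purified; 100 mM Tris pH 7.5, 10 mM citrate, 25 mM KHCO3, 1% DMSO. Started with 200 μM NADH and acetyl-CoA plus 500 μM ATP; PK/LDH-coupled A340 decrease read 15 min at 25° C. IC50 by nonlinear fit of low-control-subtracted slopes.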

T1 sequence (O00763 129-2458 limits assumed): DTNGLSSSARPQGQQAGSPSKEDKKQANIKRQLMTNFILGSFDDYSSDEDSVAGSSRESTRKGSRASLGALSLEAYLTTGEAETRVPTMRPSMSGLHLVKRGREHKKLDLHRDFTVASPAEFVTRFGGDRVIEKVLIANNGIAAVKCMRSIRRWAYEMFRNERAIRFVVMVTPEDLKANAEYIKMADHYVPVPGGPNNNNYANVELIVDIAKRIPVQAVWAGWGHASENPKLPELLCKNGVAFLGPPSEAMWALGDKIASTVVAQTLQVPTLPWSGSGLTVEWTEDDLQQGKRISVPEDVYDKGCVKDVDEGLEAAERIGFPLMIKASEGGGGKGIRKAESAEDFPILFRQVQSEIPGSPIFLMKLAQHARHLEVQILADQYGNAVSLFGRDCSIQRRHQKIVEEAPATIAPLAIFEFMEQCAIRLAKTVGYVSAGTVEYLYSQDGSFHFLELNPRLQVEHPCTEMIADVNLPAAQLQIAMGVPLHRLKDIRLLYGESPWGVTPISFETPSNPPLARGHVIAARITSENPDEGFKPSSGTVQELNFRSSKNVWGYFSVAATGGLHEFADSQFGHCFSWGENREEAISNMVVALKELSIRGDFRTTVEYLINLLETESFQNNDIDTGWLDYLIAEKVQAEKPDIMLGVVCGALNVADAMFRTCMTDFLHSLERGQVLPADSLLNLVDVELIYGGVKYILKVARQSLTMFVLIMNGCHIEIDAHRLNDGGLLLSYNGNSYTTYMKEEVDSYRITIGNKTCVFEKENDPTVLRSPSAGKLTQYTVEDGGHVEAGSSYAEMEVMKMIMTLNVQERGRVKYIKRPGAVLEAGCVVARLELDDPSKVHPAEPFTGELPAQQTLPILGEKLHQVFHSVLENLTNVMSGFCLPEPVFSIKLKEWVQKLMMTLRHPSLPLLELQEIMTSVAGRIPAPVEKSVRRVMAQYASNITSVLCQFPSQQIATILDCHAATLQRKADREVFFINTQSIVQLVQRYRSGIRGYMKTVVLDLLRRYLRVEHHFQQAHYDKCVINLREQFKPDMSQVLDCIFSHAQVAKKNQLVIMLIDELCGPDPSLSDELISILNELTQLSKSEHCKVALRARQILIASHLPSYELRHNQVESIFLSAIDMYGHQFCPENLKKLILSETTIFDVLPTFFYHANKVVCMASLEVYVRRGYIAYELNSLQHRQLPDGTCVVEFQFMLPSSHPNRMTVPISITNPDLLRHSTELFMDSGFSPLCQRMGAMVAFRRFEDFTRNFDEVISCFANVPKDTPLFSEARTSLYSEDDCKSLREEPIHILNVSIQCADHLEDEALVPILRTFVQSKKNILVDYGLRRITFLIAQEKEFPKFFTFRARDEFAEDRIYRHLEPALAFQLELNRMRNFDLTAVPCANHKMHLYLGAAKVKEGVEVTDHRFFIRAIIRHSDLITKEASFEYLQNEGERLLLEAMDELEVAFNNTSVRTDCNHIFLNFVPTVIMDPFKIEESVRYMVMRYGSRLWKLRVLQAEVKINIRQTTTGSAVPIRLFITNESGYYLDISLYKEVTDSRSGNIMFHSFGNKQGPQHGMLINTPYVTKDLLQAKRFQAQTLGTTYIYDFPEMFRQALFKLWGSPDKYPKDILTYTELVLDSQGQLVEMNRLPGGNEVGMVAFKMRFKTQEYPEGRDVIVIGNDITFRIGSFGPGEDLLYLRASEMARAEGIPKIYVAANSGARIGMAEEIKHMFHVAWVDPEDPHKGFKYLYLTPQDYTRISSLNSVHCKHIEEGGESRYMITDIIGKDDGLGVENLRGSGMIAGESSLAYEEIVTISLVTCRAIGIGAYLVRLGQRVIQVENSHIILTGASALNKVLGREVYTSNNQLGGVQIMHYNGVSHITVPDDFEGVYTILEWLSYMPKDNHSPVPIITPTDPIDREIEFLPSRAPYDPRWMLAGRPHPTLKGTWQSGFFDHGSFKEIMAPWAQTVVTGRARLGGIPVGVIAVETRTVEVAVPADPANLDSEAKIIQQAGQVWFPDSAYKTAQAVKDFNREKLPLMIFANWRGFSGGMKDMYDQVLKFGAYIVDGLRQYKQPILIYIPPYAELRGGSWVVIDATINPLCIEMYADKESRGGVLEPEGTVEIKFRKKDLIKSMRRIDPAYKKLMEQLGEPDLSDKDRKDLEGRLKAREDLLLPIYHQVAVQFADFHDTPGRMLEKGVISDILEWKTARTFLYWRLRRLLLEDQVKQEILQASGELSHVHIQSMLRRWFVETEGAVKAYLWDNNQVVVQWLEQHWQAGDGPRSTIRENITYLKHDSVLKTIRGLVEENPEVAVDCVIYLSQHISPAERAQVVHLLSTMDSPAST

Row | SMILES | IC50 [nM]
1 | CCOc1ccc(N2CCC(c3ccc([C@H](C)NC(=O)c4ncc[nH]4)cc3)CC2)cc1 [Example 6.35] | 7100
2 | CC(=O)N[C@@H](C)c1ccc(C2CCN(c3ccc(OCC(C)C)c(C)c3)CC2)cc1 [Example 8.26] | 840
3 | CC(=O)N[C@@H](C)c1ccc(C2CCN(c3ccc(OC4CCC4)nc3)CC2)cc1 [Example 1.62] | 200
4 | CCOc1ccc(N2CCC(c3ccc([C@H](C)NC(=O)c4cocn4)cc3)CC2)cc1 [Example 6.47] | 730
5 | CC(=O)N[C@@H](C)c1ccc(C2CCN(c3ccc4[nH]cc(C)c4c3)CC2)cc1 [Example 1.75] | 2200
6 | CC(=O)N[C@@H](C)c1ccc(C2CCN(c3ncc([N+](=O)[O-])cn3)CC2)cc1 [Example 4.39] | 1900
7 | CCCCOc1cc(N2CCC(c3ccc([C@H](C)NC(C)=O)cc3)CC2)ccn1 [Example 3.4] | 110
8 | COc1ccc(N2CCC(c3ccc([C@H](C)NC(C)=O)cc3)CC2)cc1F [Example 1.157] | 580
9 | CC(=O)N[C@@H](C)c1ccc(C2CCN(c3ccc4nc(C)sc4c3)CC2)cc1 [Example 1.66] | 420
10 | CC(=O)N[C@@H](C)c1ccc(C2CCN(c3ncc4nc(-c5ccccc5)oc4n3)CC2)cc1 [Example 4.28] | 60
11 | CC(=O)N[C@@H](C)c1ccc(C2CCN(c3ncc(Br)cc3F)CC2)cc1 [Example 5.38] | 570
12 | CCOc1ccc(N2CCC(c3ccc([C@H](C)NC(=O)c4cscn4)cc3)CC2)cc1 [Example 6.46] | 10400
13 | CC(=O)N[C@@H](C)c1ccc(C2CCN(c3ccc4nnn(C)c4n3)CC2)cc1 [Example 4.14] | 2400
14 | CC(=O)N[C@@H](C)c1ccc(C2CCN(c3nc(N4CCCCC4)ncc3C(F)(F)F)CC2)cc1 [Example 5.201] | 790
15 | CC(=O)N[C@@H](C)c1ccc(C2CCN(c3ccc(OC4CCCCC4)nc3)CC2)cc1 [Example 1.172] | 250
16 | C[C@H](NC(=O)C1CC1)c1ccc(C2CCN(c3ccc(OCC4CC4)cc3)CC2)cc1 [Example 1.16] | 90
17 | C[C@H](NC(=O)N(C)C)c1ccc(C2CCN(c3ccc(OC4CC4)cc3)CC2)cc1 [Example 1.112] | 210
18 | CCCOc1ccc(N2CCC(c3ccc([C@H](C)NC(=O)OC)cc3)CC2)c(OC)c1 [Example 1.132] | 840
19 | CC(=O)N[C@@H](C)c1ccc(C2CCN(c3ccnc(OCC(C)C)c3)CC2)cc1 [Example 19.1, (S)—N-{1-[4-(2′-Isobutoxy-3,4,5,6-tetrahydro-2H-[1,4′]bipyridinyl-4-yl)-phenyl]-ethyl}-acetamide] | 110
20 | CC(=O)N[C@@H](C)c1ccc(C2CCN(c3nccc(C(F)(F)F)c3F)CC2)cc1 [Example 5.11] | 150
21 | CCOc1ccc(N2CCC(c3ccc([C@H](C)NC(C)=O)cc3)CC2)c(OCC)n1 [Example 1.180] | 530
22 | CCCOc1cccc(N2CCC(c3ccc([C@H](C)NC(C)=O)cc3)CC2)c1 [Example 1.89] | 390
23 | CCCOc1cnc(N2CCC(c3ccc([C@H](C)NC(=O)N(C)C)cc3)CC2)nc1 [Example 4.306] | 120

Other lines, results leading:

Row | IC50 [nM] | SMILES
24 | 550 | CC(=O)N[C@@H](C)c1ccc(C2CCN(c3ccnc(N4CCC5(CC5)C4)n3)CC2)cc1 [Example 11.93]
25 | 460 | CC(=O)N[C@@H](C)c1ccc(C2CCN(c3ncc(C4CC4)cc3F)CC2)cc1 [Example 10.305]
26 | 170 | C[C@H](NC(=O)N(C)C)c1ccc(C2CCN(c3ncc(-c4ccccc4)cn3)CC2)cc1 [Example 10.111]
27 | 180 | CC(=O)N[C@@H](C)c1ccc(C2CCN(c3ncc(-c4ccc(CC#N)cc4)cn3)CC2)cc1 [Example 10.18]
28 | 610 | CCOc1ccc(N2CCC(c3ccc([C@H](C)NC(=O)N(C)CC)cc3)CC2)cc1 [Example 14.51]
29 | 1100 | COc1ncc(-c2cnc(N3CCC(c4ccc([C@H](C)NC(C)=O)cc4)CC3)nc2)cn1 [Example 10.22]
30 | 14000 | CC(=O)N[C@@H](C)c1ccc(C2CCN(c3ncc(C(=O)N(C)CC#N)cn3)CC2)cc1 [Example 18.42]
31 | 240 | CCOc1cccc(-c2ccnc(N3CCC(c4ccc([C@H](C)NC(C)=O)cc4)CC3)n2)c1 [Example 22.10]
32 | 3900 | CCOc1ncc(N2CCC(c3ccc([C@H](C)NC(=O)C4CC4)cc3)CC2)cn1 [Example 16.8]
33 | 150 | CC(=O)N[C@@H](C)c1ccc(C2CCN(c3ncc(-c4ccccc4)c(C)n3)CC2)cc1 [Example 21.2, (S)—N-(1-{4-[1-(4-Methyl-5-phenyl-pyrimidin-2-yl)-piperidin-4-yl]-phenyl}-ethyl)-acetamide]
34 | 2300 | CC(=O)N[C@@H](C)c1ccc(C2CCN(c3ccc(OCC4CCOCC4)cc3)CC2)cc1 [Example 9.30]
35 | 10400 | CC(=O)N[C@@H](C)c1ccc(C2CCN(c3ncc(-c4ccc(N(C)C)nc4)cn3)CC2)cc1 [Example 10.81]
36 | 1600 | COc1cc(C)c(-c2cnc(N3CCC(c4ccc([C@H](C)NC(C)=O)cc4)CC3)nc2)cc1C [Example 10.127]
37 | 6700 | C[C@H](NC(=O)C1CC1)c1ccc(C2CCN(c3cnc(NCC4CC4)nc3)CC2)cc1 [Example 16.9]
38 | 970 | CC(=O)N[C@@H](C)c1ccc(C2CCN(c3ncc(-c4ccc(OC(C)C)cc4)cn3)CC2)cc1 [Example 10.27]
39 | 1600 | CC(=O)N[C@@H](C)c1ccc(C2CCN(c3ccnc(NCCC4CC4)n3)CC2)cc1 [Example 11.106]
40 | 90 | CCCOc1ccc(N2CCC(c3ccc([C@H](C)NC(C)=O)cc3)CC2)c(C#N)c1 [Example 13.1, (S)—N-(1-{4-[1-(2-Cyano-4-propoxy-phenyl)-piperidin-4-yl]-phenyl}-ethyl)-acetamide]
41 | 400 | COCC(C)Oc1cc(N2CCC(c3ccc([C@H](C)NC(C)=O)cc3)CC2)ccn1 (stereo partly shown) [Example 19.14]
42 | 170 | CC(=O)N[C@@H](C)c1ccc(C2CCN(c3cccc(OCc4cc(C)on4)c3)CC2)cc1 [Example 9.11]
43 | 370 | CC(=O)N[C@@H](C)c1ccc(C2CCN(c3cccc(OCCC(C)C)c3)CC2)cc1 [Example 9.1, (S)—N-[1-(4-{1-[3-(Isopentyloxy)-phenyl]-piperidin-4-yl}-phenyl)-ethyl]-acetamide]
44 | 270 | CC(=O)N[C@@H](C)c1ccc(C2CCN(c3cccc(OCCOC4CC4)c3)CC2)cc1 [Example 9.14]
45 | 1300 | CC(=O)N[C@@H](C)c1ccc(C2CCN(c3ccc(NCC4CC4)cc3)CC2)cc1 [Example 24.4]
46 | 24500 | CC(=O)N[C@@H](C)c1ccc(C2CCN(c3ncc(C(=O)N[C@H]4C[C@H](N)C4)cn3)CC2)cc1 [Example 18.74]
47 | 420 | CC(=O)N[C@@H](C)c1ccc(C2CCN(c3ncc(-c4cccc(CC#N)c4)cn3)CC2)cc1 [Example 10.123]
48 | 1400 | CC(=O)N[C@@H](C)c1ccc(C2CCN(c3ncc(C(=O)Nc4cccc(F)c4)cn3)CC2)cc1 [Example 18.2]
49 | 13800 | CC(=O)N[C@@H](C)c1ccc(C2CCN(c3ncc(C(=O)NCCN4CCCC4)cn3)CC2)cc1 [Example 18.51]
50 | 15500 | CC(=O)N[C@@H](C)c1ccc(C2CCN(c3ncc(C(=O)NCC4CCNCC4)cn3)CC2)cc1 [Example 18.60]
51 | 870 | CC(=O)N[C@@H](C)c1ccc(C2CCN(c3cc(N(C)Cc4ccccc4)ncn3)CC2)cc1 [Example 11.82]
52 | 13300 | CCOc1ccc(N2CCC(c3ccc([C@H](C)NC(=O)NCc4cncnc4)cc3)CC2)cc1 [Example 14.62]

From patent US9006450B2 (Boehringer Ingelheim International GmbH, priority 2010, dated 2015)
